Data taken from ChEMBL document CHEMBL6127131, “Design, Synthesis, and Biological Evaluation of New Selective PDE4 Inhibitors for Topical Treatment of Psoriasis” (J Med Chem, 2024).
Calls of active or inactive are those of the source. The rule behind the calls is not given here.

How the values were obtained:
[1] = molecular target: T1, 3',5'-cyclic-AMP phosphodiesterase 4D (Homo sapiens, UniProt Q08499); assay: Inhibition of PDE4D7 (unknown origin)
Mus musculus [2] = organism: Mus musculus; assay: Antiinflammatory activity against imiquimod-induced psoriasis in BALB/c mouse model assessed as improvement in clinical features of skin lesions pretreated with IMQ for 4 hrs followed by compound addition once daily from day 2 to 8; type: functional, organism-based; conditions: dose 0.3-1.2 %, time 7.0 day
[3] = Initial plasma concentration in ICR(CD-1) mouse at 5 mg/kg, iv measured upto 24 hrs by LC-MS/MS analysis; type: ADME, organism-based
[4] = Clearance in ICR(CD-1) mouse at 5 mg/kg, iv measured upto 24 hrs by LC-MS/MS analysis; type: ADME, organism-based; conditions: in vivo
[5] = AUC(0 to infinity) in ICR(CD-1) mouse at 5 mg/kg, iv measured upto 24 hrs by LC-MS/MS analysis; type: ADME, organism-based; conditions: in vivo
RAW264.7 [6] = assay: Anti-inflammatory activity against LPS induced mouse RAW264.7 cells assessed as reduction in IL-6 secretion incubated for 24 hrs by ELISA; type: functional, cell-based; conditions: RAW264.7, 24 h
RAW264.7 [7] = assay: Anti-inflammatory activity against LPS induced mouse RAW264.7 cells assessed as reduction in TNFalpha secretion incubated for 24 hrs by ELISA; type: functional, cell-based; conditions: RAW264.7, 24 h
Mus musculus [8] = assay: Antiinflammatory activity against imiquimod-induced psoriasis in BALB/c mouse model assessed as reduction in skin thickness at 0.3 to 1.2% administration as ointment pretreated with IMQ for 4 hrs followed by compound addition once daily from day 2 to 8 by H and E staining based assay; type: functional, organism-based; conditions: dose 0.3-1.2 %, time 7.0 day
[9] = Half-life in ICR(CD-1) mouse at 5 mg/kg, iv measured upto 24 hrs by LC-MS/MS analysis; type: ADME, organism-based; conditions: in vivo
[10] = Drug concentration in ICR(CD-1) mouse blood at 1.2% administered topically and measured after 1 hr by LC-MS/MS analysis; type: ADME, tissue-based; conditions: topical or ocular, route top, read-out: Ct
[11] = Metabolic stability in mouse liver microsomes assessed as half-life preincubated for 2 hrs followed by NADPH regenerating agent addition and measured upto 4 hrs by LC-MS analysis; type: ADME, Microsome; conditions: time < 6 hrs
[12] = Cytotoxicity against mouse RAW264.7 cells incubated for 24 hrs by CCK8 assay; type: toxicity, cell-based
[13] = molecular target: 5-hydroxytryptamine receptor 1B (Homo sapiens) (UniProt P28222); assay: Inhibition of 5-HT1B (unknown origin) at 10 uM relative to control
Chain of 5-hydroxytryptamine receptor 1B (Homo sapiens) (P28222 whole entry): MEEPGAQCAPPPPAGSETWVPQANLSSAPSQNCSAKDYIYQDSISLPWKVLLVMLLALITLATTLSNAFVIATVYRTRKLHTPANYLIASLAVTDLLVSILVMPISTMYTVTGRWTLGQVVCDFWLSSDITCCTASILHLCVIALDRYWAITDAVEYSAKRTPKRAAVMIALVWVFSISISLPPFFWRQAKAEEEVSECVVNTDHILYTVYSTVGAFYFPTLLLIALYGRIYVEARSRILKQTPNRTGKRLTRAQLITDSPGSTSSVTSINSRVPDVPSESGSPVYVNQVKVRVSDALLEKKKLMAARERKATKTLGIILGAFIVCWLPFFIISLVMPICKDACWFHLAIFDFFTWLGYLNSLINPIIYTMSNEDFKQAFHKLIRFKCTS

Mus musculus [14] = assay: Antiinflammatory activity against imiquimod-induced psoriasis in BALB/c mouse model assessed as reduction in immune cell infiltration at 0.3 to 1.2% administration as ointment pretreated with IMQ for 4 hrs followed by compound addition once daily from day 2 to 8 by H and E staining based assay; type: functional, organism-based; conditions: dose 0.3-1.2 %, time 7.0 day
Mus musculus [15] = assay: Antiinflammatory activity against imiquimod-induced psoriasis in BALB/c mouse model assessed as reduction in IL-17A protein level at 1.2% administration as ointment pretreated with IMQ for 4 hrs followed by compound addition once daily from day 2 to 8 by ELISA; type: functional, organism-based; conditions: time 7.0 day
[16] = Metabolic stability in rat liver microsomes assessed as half-life preincubated for 2 hrs followed by NADPH regenerating agent addition and measured upto 4 hrs by LC-MS analysis; type: ADME, Microsome; conditions: time < 6 hrs
HaCaT = assay: Anti-inflammatory activity against M5 induced human HaCaT cells assessed as reduction in TNFalpha secretion incubated for 24 hrs by ELISA; type: functional, cell-based
[17] = AUC(0 to t) in ICR(CD-1) mouse at 10 mg/kg, po measured upto 24 hrs by LC-MS/MS analysis; type: ADME, organism-based; conditions: in vivo
RAW264.7 [18] = assay: Downregulation of TNFalpha mRNA expression in LPS induced mouse RAW264.7 cells at 5 to 20 uM preincubated for 12 hrs followed by LPS stimulation for 4 hrs by RT-qPCR analysis; type: functional, cell-based; conditions: dose 5-20 µM, time 16.0 hrs
[19] = Half-life in ICR(CD-1) mouse at 10 mg/kg, po measured upto 24 hrs by LC-MS/MS analysis; type: ADME, organism-based; conditions: in vivo
[20] = Tmax in ICR(CD-1) mouse at 10 mg/kg, po measured upto 24 hrs by LC-MS/MS analysis; type: ADME, organism-based; conditions: in vivo
RAW264.7 [21] = assay: Upregulation of p-CREB1/CREB1 protein ratio in mouse RAW264.7 cells at 5 to 20 uM preincubated for 12 hrs followed by LPS stimulation for 4 hrs by Western blotting analysis; type: functional, cell-based; conditions: dose 5-20 µM, time 16.0 hrs
RAW264.7 [22] = assay: Downregulation of IL-6 mRNA expression in LPS induced mouse RAW264.7 cells at 5 to 20 uM preincubated for 12 hrs followed by LPS stimulation for 4 hrs by RT-qPCR analysis; type: functional, cell-based; conditions: dose 5-20 µM, time 16.0 hrs
[23] = Toxicity in BALB/c mouse assessed as body weight loss at 0.3 to 1.2% administration as ointment once a day from day 2 to 8; conditions: in vivo, topical_or_ocular, 168 h, dose 0.3-1.2 %, time 7 day
[24] = Cmax in ICR(CD-1) mouse at 10 mg/kg, po measured upto 24 hrs by LC-MS/MS analysis; type: ADME, organism-based; conditions: in vivo
RAW264.7 [25] = assay: Upregulation of EPAC1 protein expression in mouse RAW264.7 cells at 5 to 20 uM preincubated for 12 hrs followed by LPS stimulation for 4 hrs by Western blotting analysis; type: functional, cell-based; conditions: dose 5-20 µM, time 16.0 hrs
[26] = molecular target: D(2) dopamine receptor (Homo sapiens) (UniProt P14416); assay: Inhibition of D2S (unknown origin) at 10 uM relative to control
Chain of D(2) dopamine receptor (Homo sapiens) (P14416 whole entry): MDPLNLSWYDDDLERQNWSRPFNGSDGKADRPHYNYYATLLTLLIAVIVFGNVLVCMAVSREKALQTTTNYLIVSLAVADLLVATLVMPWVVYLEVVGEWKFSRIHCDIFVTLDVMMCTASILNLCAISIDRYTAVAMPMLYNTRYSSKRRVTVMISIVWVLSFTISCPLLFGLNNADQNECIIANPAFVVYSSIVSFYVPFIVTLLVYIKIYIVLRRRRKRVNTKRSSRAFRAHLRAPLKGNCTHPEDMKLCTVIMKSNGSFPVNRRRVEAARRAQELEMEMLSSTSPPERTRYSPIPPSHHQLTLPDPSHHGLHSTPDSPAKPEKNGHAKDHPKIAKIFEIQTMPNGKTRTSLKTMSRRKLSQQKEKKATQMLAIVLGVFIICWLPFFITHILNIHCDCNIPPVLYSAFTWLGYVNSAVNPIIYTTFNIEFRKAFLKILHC

[27] = Apparent volume of distribution in ICR(CD-1) mouse at 5 mg/kg, iv measured upto 24 hrs by LC-MS/MS analysis; type: ADME, organism-based; conditions: in vivo, read-out: Vz
[28] = Cytotoxicity against human HaCaT cells incubated for 24 hrs by CCK8 assay; type: toxicity, cell-based
[29] = molecular target: 3',5'-cyclic-AMP phosphodiesterase 4A (Homo sapiens, UniProt P27815); assay: Inhibition of PDE4A (unknown origin)
Chain of 3',5'-cyclic-AMP phosphodiesterase 4A (P27815 whole entry): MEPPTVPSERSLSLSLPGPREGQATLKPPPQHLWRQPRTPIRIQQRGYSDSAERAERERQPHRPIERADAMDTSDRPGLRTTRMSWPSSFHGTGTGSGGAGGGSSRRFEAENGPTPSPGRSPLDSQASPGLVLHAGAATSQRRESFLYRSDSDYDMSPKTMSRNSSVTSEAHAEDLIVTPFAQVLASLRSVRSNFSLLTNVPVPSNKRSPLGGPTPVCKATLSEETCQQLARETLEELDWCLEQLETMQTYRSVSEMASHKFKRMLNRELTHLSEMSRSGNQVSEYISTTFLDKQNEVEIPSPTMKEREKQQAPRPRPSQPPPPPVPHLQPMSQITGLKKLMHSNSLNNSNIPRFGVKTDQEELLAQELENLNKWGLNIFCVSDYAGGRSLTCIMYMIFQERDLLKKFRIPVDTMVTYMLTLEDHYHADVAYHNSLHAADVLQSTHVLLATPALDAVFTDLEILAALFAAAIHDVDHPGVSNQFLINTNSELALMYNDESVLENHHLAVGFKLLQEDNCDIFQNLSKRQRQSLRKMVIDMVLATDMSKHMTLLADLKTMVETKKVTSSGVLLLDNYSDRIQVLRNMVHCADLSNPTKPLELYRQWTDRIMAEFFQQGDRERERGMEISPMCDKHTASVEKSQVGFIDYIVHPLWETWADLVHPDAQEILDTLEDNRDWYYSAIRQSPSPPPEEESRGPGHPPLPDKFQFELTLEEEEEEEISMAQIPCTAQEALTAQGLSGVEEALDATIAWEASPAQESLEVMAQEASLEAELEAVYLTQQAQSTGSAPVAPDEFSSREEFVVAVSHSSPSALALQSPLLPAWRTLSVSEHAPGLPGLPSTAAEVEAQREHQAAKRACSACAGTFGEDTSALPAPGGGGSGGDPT

RAW264.7 [30] = assay: Downregulation of IL-1beta mRNA expression in LPS induced mouse RAW264.7 cells at 5 to 20 uM preincubated for 12 hrs followed by LPS stimulation for 4 hrs by RT-qPCR analysis; type: functional, cell-based; conditions: dose 5-20 µM, time 16.0 hrs
Mus musculus [31] = assay: Antiinflammatory activity against imiquimod-induced psoriasis in BALB/c mouse model assessed as reduction in spleen enlargement at 0.3 to 1.2% administration as ointment pretreated with IMQ for 4 hrs followed by compound addition once daily from day 2 to 8; type: functional, organism-based; conditions: dose 0.3-1.2 %, time 7.0 day
[32] = Metabolic stability in dog liver microsomes assessed as half-life preincubated for 2 hrs followed by NADPH regenerating agent addition and measured upto 4 hrs by LC-MS analysis; type: ADME, Canis lupus familiaris, Microsome; conditions: time < 6 hrs
[33] = AUC(0 to infinity) in ICR(CD-1) mouse at 10 mg/kg, po measured upto 24 hrs by LC-MS/MS analysis; type: ADME, organism-based; conditions: in vivo
Mus musculus [34] = assay: Antiinflammatory activity against imiquimod-induced psoriasis in BALB/c mouse model assessed as reduction in IL-1beta protein level at 1.2% administration as ointment pretreated with IMQ for 4 hrs followed by compound addition once daily from day 2 to 8 by ELISA; type: functional, organism-based; conditions: time 7.0 day
[35] = AUC(0 to t) in ICR(CD-1) mouse at 5 mg/kg, iv measured upto 24 hrs by LC-MS/MS analysis; type: ADME, organism-based; conditions: in vivo
[36] = Metabolic stability in human liver microsomes assessed as half-life preincubated for 2 hrs followed by NADPH regenerating agent addition and measured upto 4 hrs by LC-MS analysis; type: ADME, Microsome; conditions: time < 6 hrs
[37] = molecular target: Cannabinoid receptor 1 (Homo sapiens) (UniProt P21554); assay: Inhibition of CB1 (unknown origin) at 10 uM relative to control
Chain of Cannabinoid receptor 1 (Homo sapiens) (P21554 whole entry): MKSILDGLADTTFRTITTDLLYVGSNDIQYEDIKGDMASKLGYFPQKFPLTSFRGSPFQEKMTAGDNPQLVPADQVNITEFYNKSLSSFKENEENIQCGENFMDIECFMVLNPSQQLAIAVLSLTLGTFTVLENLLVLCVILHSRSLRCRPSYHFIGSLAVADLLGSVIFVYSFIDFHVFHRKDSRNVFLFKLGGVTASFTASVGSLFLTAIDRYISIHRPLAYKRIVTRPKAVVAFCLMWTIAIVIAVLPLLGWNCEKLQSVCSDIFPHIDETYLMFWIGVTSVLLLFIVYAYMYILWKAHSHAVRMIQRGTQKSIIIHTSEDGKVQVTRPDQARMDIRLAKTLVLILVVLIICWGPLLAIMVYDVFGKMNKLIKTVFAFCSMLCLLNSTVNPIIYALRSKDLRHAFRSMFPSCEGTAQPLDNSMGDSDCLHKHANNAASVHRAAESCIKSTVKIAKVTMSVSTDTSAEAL

[38] = Drug concentration in ICR(CD-1) mouse blood at 1.2% administered topically and measured after 2 hrs by LC-MS/MS analysis; type: ADME, tissue-based; conditions: topical or ocular, route top, read-out: Ct
[39] = Oral bioavailability in ICR(CD-1) mouse at 10 mg/kg measured upto 24 hrs by LC-MS/MS analysis; type: ADME, organism-based; conditions: in vivo
RAW264.7 [40] = assay: Downregulation of IL-17A mRNA expression in LPS induced mouse RAW264.7 cells at 5 to 20 uM preincubated for 12 hrs followed by LPS stimulation for 4 hrs by RT-qPCR analysis; type: functional, cell-based; conditions: dose 5-20 µM, time 16.0 hrs
[41] = Metabolic stability in monkey liver microsomes assessed as half-life preincubated for 2 hrs followed by NADPH regenerating agent addition and measured upto 4 hrs by LC-MS analysis; type: ADME, Macaca mulatta, Microsome; conditions: rhesus monkey, time < 6 hrs
[42] = molecular target: T1, 3',5'-cyclic-AMP phosphodiesterase 4D; assay: Inhibition of PDE4D (unknown origin)

T1 sequence (Q08499 whole entry): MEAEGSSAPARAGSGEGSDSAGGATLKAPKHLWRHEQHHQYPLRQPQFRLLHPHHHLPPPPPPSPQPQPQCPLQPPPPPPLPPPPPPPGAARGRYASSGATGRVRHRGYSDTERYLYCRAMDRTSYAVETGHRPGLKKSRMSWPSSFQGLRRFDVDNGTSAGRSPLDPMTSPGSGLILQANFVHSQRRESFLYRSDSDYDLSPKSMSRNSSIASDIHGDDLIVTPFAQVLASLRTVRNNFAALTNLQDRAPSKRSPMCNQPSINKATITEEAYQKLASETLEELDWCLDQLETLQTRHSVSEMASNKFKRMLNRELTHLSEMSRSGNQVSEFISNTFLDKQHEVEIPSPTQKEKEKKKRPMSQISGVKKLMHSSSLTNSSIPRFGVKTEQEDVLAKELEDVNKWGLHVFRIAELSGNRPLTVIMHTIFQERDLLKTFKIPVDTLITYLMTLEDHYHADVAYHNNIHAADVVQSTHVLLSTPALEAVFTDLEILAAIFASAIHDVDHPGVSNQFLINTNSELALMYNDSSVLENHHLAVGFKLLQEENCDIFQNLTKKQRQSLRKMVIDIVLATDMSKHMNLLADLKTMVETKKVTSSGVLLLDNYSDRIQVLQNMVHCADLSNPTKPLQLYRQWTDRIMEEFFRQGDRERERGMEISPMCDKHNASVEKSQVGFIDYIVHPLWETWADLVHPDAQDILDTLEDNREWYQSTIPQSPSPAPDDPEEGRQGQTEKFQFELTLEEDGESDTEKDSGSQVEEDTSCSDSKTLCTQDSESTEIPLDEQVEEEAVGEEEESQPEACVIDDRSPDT

Structure (SMILES): N#Cc1ccc(Oc2ccc3c(c2)COB3O)cc1 [CRISABOROLE]
- IC50 [1]: 0.17 µM

Structure (SMILES): O=C(NCc1ncccn1)c1csc(-c2ccc(OC(F)F)c(OCC3CC3)c2)n1
- Activity (Mus musculus [2]): Dose-Dependent Effect
- C0 at 24 h [3]: 5240 ng/mL
- clearance [4]: 135 mL/min/kg
- AUC(0-inf) [5]: 620 ng·h/mL
- IC50 (RAW264.7 [6]): 40.9 µM
- IC50 (RAW264.7 [7]): 34.2 µM
- Activity (Mus musculus [8]): Active
- half-life [9]: 16.2 min
- concentration at 1 h [10]: 0.34 ng/mL
- half-life [11]: 28.6 min
- CC50 at 24 h [12]: > 50 µM
- inhibition [13]: 56.6%
- Activity (Mus musculus [14]): Active
- Activity (Mus musculus [15]): Active
- half-life [16]: 25.3 min
- IC50 (HaCaT): 38.6 µM
- AUC(0-t) at 24 h [17]: 41 ng·h/mL
- Activity (RAW264.7 [18]): Active
- half-life [19]: 133 min
- Tmax [20]: 64.8 min
- Activity (RAW264.7 [21]): Active
- Activity (RAW264.7 [22]): Active
- Activity [23]: Non-Toxic
- Cmax [24]: 31 ng/mL
- Activity (RAW264.7 [25]): Active
- inhibition [26]: 53.8%
- Vd [27]: 3.12 L/kg
- CC50 at 24 h [28]: > 50 µM
- IC50 [29]: 0.00711 µM
- Activity (RAW264.7 [30]): Active
- Activity (Mus musculus [31]): Active
- half-life [32]: 62.1 min
- AUC(0-inf) [33]: 51 ng·h/mL
- Activity (Mus musculus [34]): Active
- AUC(0-t) at 24 h [35]: 619 ng·h/mL
- half-life [36]: 296 min
- inhibition [37]: 51.4%
- concentration at 2 h [38]: 0.35 ng/mL
- bioavailability [39]: 3.31%
- Activity (RAW264.7 [40]): Active
- half-life [41]: 25.6 min

Structure (SMILES): CCOc1cc([C@@H](CS(C)(=O)=O)N2C(=O)c3csc(NC(C)=O)c3C2=O)ccc1OC
- IC50 [42]: 0.114 µM
